Results: PubChem BioAssay (NCI)
Where “and” joins values, the source holds several entries; their conditions need not be identical. Identical values can stand only once.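 Interpolation was linear, between the two tested concentrations surrounding the appropriate level; five concentrations were tested over 48 hours in 96-well plates. TGI denotes the concentration required for complete inhibition of growth.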

Key:
Experiment in all cases: NCI anticancer screen, dose series, 48 h
KM20L2 colon = tested on: KM20L2 colon
XF 498 CNS = tested on: XF 498 CNS
RXF-631 renal = tested on: RXF-631 renal
LXFL 529 NSCLC = tested on: LXFL 529 NSCLC
DLD-1 colon = tested on: DLD-1 colon
HOP-18 NSCLC = tested on: HOP-18 NSCLC
MDA-N = tested on: MDA-N

| Structure (SMILES) | TGI (KM20L2 colon) [µM] | TGI (XF 498 CNS) [µM] | TGI (RXF-631 renal) [µM] | TGI (LXFL 529 NSCLC) [µM] | TGI (DLD-1 colon) [µM] | TGI (HOP-18 NSCLC) | TGI (MDA-N) [µM] |
| --- | --- | --- | --- | --- | --- | --- | --- |
| O=c1cc(-c2c[nH]c3ccccc23)[nH]c2cc3c(cc12)OCO3 | > 100 | > 100 | > 100 | > 100 | > 100 | – | – |
| O=C1NC(=O)C(=Nc2cccc3c(=O)[nH][nH]c(=O)c23)C(c2nc3ccccc3s2)C1=O (stereo unspecified) | > 100 | > 100 | > 100 | > 100 | > 100 | > 100 µM | – |
| Cc1ccc(NC(=O)C2C(=O)N(c3ccc(C)c(C)c3)C(=O)/C2=N\NC(N)=O)cc1C (stereo unspecified) | > 100 | > 100 | – | > 100 | > 100 | > 100 µM | – |
| CN=C(NC(=S)N(C)C)N(C)C | > 100 | > 100 | > 100 | > 100 | > 100 | > 100 µM | – |
| C#CC[N+](C)(CC#C)CC#C | > 100 | > 100 | > 100 | > 100 | > 100 | – | – |
| O=C(CSc1ncn[nH]1)C[P+](c1ccccc1)(c1ccccc1)c1ccccc1 | > 100 | > 100 | – | > 100 | > 100 | – | – |
| O=C1C2=C(c3ccccc31)C(c1ccccc1)N1C(=O)CSC1=N2 (stereo unspecified) | > 100 | > 100 | > 100 | > 100 | > 100 | – | 47.3 |
| CCOc1ccc2c(c1)[n+]([O-])c(-c1ccc(Br)cc1)c(N)[n+]2[O-] | > 100 | > 100 | > 100 | > 100 | > 100 | > 100 µM | – |
| O=C(O)C1CCCCC1c1c2ccc(=O)c(O)c-2oc2c(O)c(O)ccc12 (stereo unspecified) | – | – | – | – | – | – | 44.9 |
| CCN(CC)c1ccc(N=Nc2ccc([N+](=O)[O-])cc2OC(=O)/C=C/c2ccccc2)c(OC(=O)/C=C/c2ccccc2)c1 | – | > 100 | > 100 | > 100 | > 100 | 9.04 µM | – |
| C[N+](C)(C)CC1CCC/C1=N/O (stereo unspecified) | 49.4 | 3.1 | – | > 100 | > 100 | > 100 µM | – |
| Cc1cccc(C(C)C)c1N1C(=O)C(=O)C(c2nc3ccccc3o2)C(=O)C1=O | > 100 | 69.1 | > 100 | > 100 | > 100 | > 100 µM | – |
| O=S(=O)(O)c1ccc(N=Nc2nc(C(F)(F)F)c(C(F)(F)F)[nH]2)cc1 | > 100 | 41.1 | > 100 | > 100 | > 100 | > 100 µM | – |
| CC(=O)OC1=CC2=CC[C@H]3[C@@H]4CCC(=O)[C@@]4(C)CC(=O)[C@]3(S)[C@@]2(C)CC1 | – | – | – | – | – | – | > 100 |
| NC1=NC(c2ccc(Cl)cc2)N(c2ccc(S(N)(=O)=O)cc2)C(N)=N1 (stereo unspecified) | – | – | – | – | – | – | > 100 |
| CN(COC(=O)c1ccccc1)c1nc(N(C)COC(=O)c2ccccc2)nc(N(C)COC(=O)c2ccccc2)n1 | – | – | – | – | – | – | > 100 |
| COC(=O)C(=CNC(N)=O)C(=O)OC | – | – | – | – | – | – | > 100 |
| O=[N+]([O-])c1ccc(C2CC(c3ccccc3Cl)=Nc3ccccc3S2=O)cc1 (stereo unspecified) | 7.04 | 18.4 | 21.5 | 3.54 | 4.1 | 39.5 µM | 21.8 |
| ON(Cc1ccccc1)C(=S)c1ccccc1 | > 100 | > 100 | > 100 | > 100 | > 100 | > 100 µM | > 100 |
| NC(=O)c1c([N+](=O)[O-])cc(C(F)(F)F)cc1[N+](=O)[O-] | 93.5 | > 100 | – | > 100 | > 100 | > 100 µM | – |

| Structure (SMILES) | TGI (KM20L2 colon) [µM] | TGI (XF 498 CNS) [µM] | TGI (RXF-631 renal) [µM] | TGI (LXFL 529 NSCLC) [µM] | TGI (DLD-1 colon) [µM] | TGI (HOP-18 NSCLC) | TGI (MDA-N) [µM] |
| --- | --- | --- | --- | --- | --- | --- | --- |
| COc1cccc(CSCC(=O)O)c1 | – | – | – | – | – | – | > 100 |
| Cc1cc(-c2ccccc2)nc(Nc2nc3ccccc3o2)n1 | > 100 | > 100 | – | > 100 | > 100 | – | – |
| O=C(O)C1CC2(C1)CC(C(=O)O)C2 (stereo unspecified) | – | – | – | – | – | – | > 100 |
| CN(C)c1ccc(/C=C/c2ccc(/C=C/c3ccc(N(C)C)cc3)cc2)cc1 | > 100 | – | > 100 | > 100 | > 100 | > 100 µM | – |
| O=C(CC1(O)C(=O)Nc2ccc(Br)cc21)c1ccc(Cl)cc1Cl (stereo unspecified) | > 100 | – | > 100 | > 100 | > 100 | – | – |
| N#CC1CCCCOCCOCCOCCOCCOCCCCCC1=O (stereo unspecified) | > 100 | – | > 100 | > 100 | > 100 | > 100 µM | – |
| CS(=O)(=O)NNS(=O)(=O)c1ccccc1 | > 100 | > 100 | – | > 100 | > 100 | – | – |
| CC(=O)NC1C(OCc2ccccc2)OC(CO)C(O)C1OC(C)C(=O)N[C@@H](C)C(=O)N[C@H](CCC(=O)OCCNc1c2ccccc2nc2cccc([N+](=O)[O-])c12)C(N)=O (stereo partly specified) | 0.00247 | – | – | 0.00267 | 0.0128 | 0.00289 µM and 0.00803 µM | – |
| O=[N+]([O-])c1ccc(Cl)c(C2CC(c3cccc4ccccc34)=Nc3ccccc3S2)c1 (stereo unspecified) | > 100 | – | > 100 | 88.9 | 28.1 | > 100 µM | – |
| COC(=O)C1OC2(CCCC3CC32)O[C@H]1C(=O)OC (stereo partly specified) | – | – | – | – | – | – | > 100 |
| COC(=O)/C(=N/Nc1cccc(Cl)c1)C(C(=O)C(=O)Nc1cccc(Cl)c1C)c1nc2ccccc2nc1C (stereo unspecified) | > 100 | – | – | – | > 100 | – | – |
| O=[N+]([O-])c1ccc(-c2noc(-c3ccc(Cl)cc3)c2C2=NCCN2)cc1 | > 100 | > 100 | – | > 100 | > 100 | > 100 µM | – |
| Cc1cn(C2C=CC(CO)O2)c(=O)[nH]c1=O (stereo unspecified) | – | – | – | – | – | – | > 1000 |
| S=c1nc(COc2ccc(Cl)cc2Cl)[nH][nH]1 | > 100 | > 100 | – | > 100 | > 100 | – | – |
| CN(C)C(=Nc1nc(=[N+](C)C)ss1)N(C)C | > 100 | > 100 | > 100 | > 100 | > 100 | > 100 µM | – |
| COC(=O)CCC1CCc2c(OC)ccc(OC)c2C1=O (stereo unspecified) | > 100 | – | – | > 100 | > 100 | – | – |
| O=C(NCCO)c1ccc([N+](=O)[O-])cc1 | > 100 | > 100 | > 100 | > 100 | > 100 | – | – |
| CCCCC(C)C(OC(=O)CC(CC(=O)O)C(=O)O)C(CC(C)CC(O)CCCCC(O)CC(O)C(C)N)OC(=O)CC(CC(=O)O)C(=O)O (stereo unspecified) | > 100 | > 100 | > 100 | > 100 | > 100 | > 100 µM | – |
| CN(C)c1nnnn1-c1c(N)n(C)c(=O)n(C)c1=O | > 100 | > 100 | > 100 | > 100 | > 100 | > 100 µM | – |
